Patent US20220125765A1, “PHARMACEUTICAL COMBINATIONS COMPRISING MEBENDAZOLE AND A STRONG OR MODERATE CYP1A2 INHIBITOR” (ZEPHAPHARM LTD, priority 2019, published 2022)
Like-named read-outs stand apart in the source and are kept apart here.

Legend:
SXFS RH-30 = assay: 2D monolayer CellTiter-Blue viability, soft tissue sarcoma RH-30; format: cell-based; conditions: 72 h
Procedure: (§1) Seventeen compounds, including mebendazole (Batch no. […] Efficacy of compounds was assessed using CellTiter-Blue® Cell Viability Assay. Anti-tumor activity is expressed as absolute and relative IC50 and IC70 values, calculated by non-linear regression analysis.

NBXF SHEP = assay: 2D monolayer CellTiter-Blue viability, neuroblastoma SHEP; format: cell-based; conditions: 72 h
Procedure: as §1

NBXF SK-N-MC = assay: 2D monolayer CellTiter-Blue viability, neuroblastoma SK-N-MC; format: cell-based; conditions: 72 h
Procedure: as §1

SXFE RD-ES = assay: 2D monolayer CellTiter-Blue viability, Ewing sarcoma RD-ES; format: cell-based; conditions: 72 h
Procedure: as §1

OVCAR-3 = assay: 2D monolayer CellTiter-Blue viability, ovarian cancer OVCAR-3; format: cell-based; conditions: for IC50: Homo sapiens; for Test/Control (%) at Drug Concentration: 72 h
Procedure: Mebendazole was tested in vitro across a panel of 12 tumor cell lines of ovarian and renal cancer by using a 2D monolayer assay. […] OVXF 899L and RXF 486L are P-gp expressing, multidrug resistant cell lines.
Anti-tumor activity is expressed as absolute and relative IC50/70 values, calculated by 4-parameter non-linear curve fit.

CYP2C19 = CYP2C19 (Homo sapiens, UniProt P33261); assay: Cytochrome P450 reaction phenotyping, recombinant CYP2C19 (Bactosomes); conditions: for Compound Remaining (% of 0 min): CYP2C19, 5 μM
Procedure: (§2) Incubations were also performed using control Bactosomes™ (no P450 enzymes present) to reveal any non-enzymatic degradation. Control compounds known to be metabolised specifically by each P450 isoform were included. All incubations were performed singularly for each test compound.
(§3) Incubations were also performed using control Bactosomes™ (no P450 enzymes present) to reveal any non-enzymatic degradation. Control compounds known to be metabolised specifically by each P450 isoform were included. All incubations were performed singularly for each test compound. […] The reactions were stopped by transferring an aliquot of incubate to quench solvent at the appropriate time points, in a 1:3 ratio. The termination plates were centrifuged at 3,000 rpm for 20 min at 4° C. to precipitate the protein.

P-gp = P-gp (Homo sapiens, UniProt P08183); assay: in vitro; conditions: human
human P-gp transporter = human P-gp transporter (Homo sapiens, UniProt P08183); assay: in vitro; conditions: Caco-2
CYP2C8 = target: T1, CYP2C8 (Homo sapiens, UniProt P10632); assay: Cytochrome P450 reaction phenotyping, recombinant CYP2C8 (Bactosomes)
T1 sequence (P10632 1-490): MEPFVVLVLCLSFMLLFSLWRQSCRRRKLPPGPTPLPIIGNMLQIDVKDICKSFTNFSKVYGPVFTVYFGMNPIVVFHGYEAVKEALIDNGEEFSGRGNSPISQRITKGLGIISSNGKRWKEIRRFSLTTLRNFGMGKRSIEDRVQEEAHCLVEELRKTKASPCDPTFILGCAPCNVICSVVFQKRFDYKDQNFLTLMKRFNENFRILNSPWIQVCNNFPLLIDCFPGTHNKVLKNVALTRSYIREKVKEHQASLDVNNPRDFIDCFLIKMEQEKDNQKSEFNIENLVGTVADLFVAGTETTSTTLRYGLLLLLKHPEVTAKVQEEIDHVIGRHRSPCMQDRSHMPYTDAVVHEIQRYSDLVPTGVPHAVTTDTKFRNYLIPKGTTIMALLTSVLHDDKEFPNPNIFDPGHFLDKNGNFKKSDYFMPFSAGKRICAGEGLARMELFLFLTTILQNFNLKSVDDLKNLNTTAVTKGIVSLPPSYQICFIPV
Procedure: as §2, §3

Sequence of P-gp (P08183 whole entry): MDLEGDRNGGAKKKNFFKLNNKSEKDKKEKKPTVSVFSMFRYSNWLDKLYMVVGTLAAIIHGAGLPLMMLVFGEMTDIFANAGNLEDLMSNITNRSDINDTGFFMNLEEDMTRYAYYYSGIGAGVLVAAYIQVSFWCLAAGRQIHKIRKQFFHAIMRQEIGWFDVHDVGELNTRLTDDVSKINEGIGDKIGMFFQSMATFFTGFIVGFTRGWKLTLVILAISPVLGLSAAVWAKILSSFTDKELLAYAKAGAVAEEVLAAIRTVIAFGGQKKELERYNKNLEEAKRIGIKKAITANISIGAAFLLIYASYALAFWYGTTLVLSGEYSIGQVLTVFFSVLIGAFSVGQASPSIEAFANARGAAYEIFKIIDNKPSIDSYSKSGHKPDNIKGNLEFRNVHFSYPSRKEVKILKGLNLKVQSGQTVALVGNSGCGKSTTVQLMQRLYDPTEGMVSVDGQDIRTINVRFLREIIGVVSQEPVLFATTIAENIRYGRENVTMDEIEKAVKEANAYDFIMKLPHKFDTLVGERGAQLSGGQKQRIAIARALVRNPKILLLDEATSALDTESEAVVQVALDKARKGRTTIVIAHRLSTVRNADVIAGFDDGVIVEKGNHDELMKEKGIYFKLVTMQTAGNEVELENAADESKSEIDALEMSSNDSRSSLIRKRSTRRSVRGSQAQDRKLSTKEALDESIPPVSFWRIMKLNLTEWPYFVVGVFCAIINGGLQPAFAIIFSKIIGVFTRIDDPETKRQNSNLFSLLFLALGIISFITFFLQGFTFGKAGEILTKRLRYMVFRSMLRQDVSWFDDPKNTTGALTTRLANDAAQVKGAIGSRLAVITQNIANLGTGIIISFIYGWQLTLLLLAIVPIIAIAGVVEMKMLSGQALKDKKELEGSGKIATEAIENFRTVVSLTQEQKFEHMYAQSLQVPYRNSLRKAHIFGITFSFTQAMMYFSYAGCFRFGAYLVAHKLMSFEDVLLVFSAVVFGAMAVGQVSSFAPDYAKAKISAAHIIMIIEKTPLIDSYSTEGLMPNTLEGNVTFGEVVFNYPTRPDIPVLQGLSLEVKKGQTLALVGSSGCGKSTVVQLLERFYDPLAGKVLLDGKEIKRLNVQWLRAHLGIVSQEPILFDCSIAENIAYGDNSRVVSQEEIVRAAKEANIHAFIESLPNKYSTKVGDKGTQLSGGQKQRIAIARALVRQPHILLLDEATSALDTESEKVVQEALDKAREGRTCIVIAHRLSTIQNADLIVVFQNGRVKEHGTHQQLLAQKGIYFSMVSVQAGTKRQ
Sequence of CYP2C19 (P33261 whole entry, canonical isoform): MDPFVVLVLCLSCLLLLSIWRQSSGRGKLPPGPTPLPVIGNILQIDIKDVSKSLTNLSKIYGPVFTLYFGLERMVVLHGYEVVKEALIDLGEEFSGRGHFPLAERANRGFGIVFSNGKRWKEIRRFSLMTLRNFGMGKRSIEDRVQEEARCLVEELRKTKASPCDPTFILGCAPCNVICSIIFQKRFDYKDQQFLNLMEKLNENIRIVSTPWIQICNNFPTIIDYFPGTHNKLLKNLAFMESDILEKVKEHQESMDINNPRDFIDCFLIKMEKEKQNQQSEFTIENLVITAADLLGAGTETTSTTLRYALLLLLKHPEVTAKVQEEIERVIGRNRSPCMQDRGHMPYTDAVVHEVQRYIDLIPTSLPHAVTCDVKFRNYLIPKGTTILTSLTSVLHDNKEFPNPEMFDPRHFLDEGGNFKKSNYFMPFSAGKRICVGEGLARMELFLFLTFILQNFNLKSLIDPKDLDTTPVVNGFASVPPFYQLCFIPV
Sequence of human P-gp transporter (P08183 whole entry): as the sequence (P08183 whole entry) above

COC(=O)Nc1nc2ccc(C(=O)c3ccccc3)cc2[nH]1 [Mebendazole, methyl N-(6-benzoyl-1H-benzimidazol-2-yl)carbamate]
Test/Control (%) at Drug Concentration (SXFS RH-30; RH-30, 1.0E+00 μM): 19%
Test/Control (%) at Drug Concentration (SXFS RH-30; RH-30, 1.0E+01 μM): 20%
Test/Control (%) at Drug Concentration (SXFS RH-30; RH-30, 1.0E+02 μM): 5%
Test/Control (%) at Drug Concentration (SXFS RH-30; RH-30, 1.0E−01 μM): 89%
Test/Control (%) at Drug Concentration (SXFS RH-30; RH-30, 1.0E−02 μM): 104%
Test/Control (%) at Drug Concentration (SXFS RH-30; RH-30, 3.2E+00 μM): 21%
Test/Control (%) at Drug Concentration (SXFS RH-30; RH-30, 3.2E+01 μM): 13%
Test/Control (%) at Drug Concentration (SXFS RH-30; RH-30, 3.2E−01 μM): 20%
Test/Control (%) at Drug Concentration (SXFS RH-30; RH-30, 3.2E−02 μM): 95%
Test/Control (%) at Drug Concentration (SXFS RH-30; RH-30, 3.2E−03 μM): 111%
Test/Control (%) at Drug Concentration (NBXF SHEP; 1.0E+00 μM): 20%
Test/Control (%) at Drug Concentration (NBXF SHEP; 1.0E+01 μM): 20%
Test/Control (%) at Drug Concentration (NBXF SHEP; 1.0E+02 μM): 16%
Test/Control (%) at Drug Concentration (NBXF SHEP; 1.0E−01 μM): 72%
Test/Control (%) at Drug Concentration (NBXF SHEP; 1.0E−02 μM): 72%
Test/Control (%) at Drug Concentration (NBXF SHEP; 3.2E+00 μM): 27%
Test/Control (%) at Drug Concentration (NBXF SHEP; 3.2E+01 μM): 18%
Test/Control (%) at Drug Concentration (NBXF SHEP; 3.2E−01 μM): 47%
Test/Control (%) at Drug Concentration (NBXF SHEP; 3.2E−02 μM): 68%
Test/Control (%) at Drug Concentration (NBXF SHEP; 3.2E−03 μM): 72%
Test/Control (%) at Drug Concentration (NBXF SK-N-MC; 1.0E+00 μM): 33%
Test/Control (%) at Drug Concentration (NBXF SK-N-MC; 1.0E+01 μM): 1%
Test/Control (%) at Drug Concentration (NBXF SK-N-MC; 1.0E+02 μM): 0%
Test/Control (%) at Drug Concentration (NBXF SK-N-MC; 1.0E−01 μM): 90%
Test/Control (%) at Drug Concentration (NBXF SK-N-MC; 1.0E−02 μM): 88%
Test/Control (%) at Drug Concentration (NBXF SK-N-MC; 3.2E+00 μM): 6%
Test/Control (%) at Drug Concentration (NBXF SK-N-MC; 3.2E+01 μM): 1%
Test/Control (%) at Drug Concentration (NBXF SK-N-MC; 3.2E−01 μM): 38%
Test/Control (%) at Drug Concentration (NBXF SK-N-MC; 3.2E−02 μM): 100%
Test/Control (%) at Drug Concentration (NBXF SK-N-MC; 3.2E−03 μM): 101%
Test/Control (%) at Drug Concentration (SXFE RD-ES; 1.0E+00 μM): 14%
Test/Control (%) at Drug Concentration (SXFE RD-ES; 1.0E+01 μM): 6%
Test/Control (%) at Drug Concentration (SXFE RD-ES; 1.0E+02 μM): 3%
Test/Control (%) at Drug Concentration (SXFE RD-ES; 1.0E−01 μM): 78%
Test/Control (%) at Drug Concentration (SXFE RD-ES; 1.0E−02 μM): 88%
Test/Control (%) at Drug Concentration (SXFE RD-ES; 3.2E+00 μM): 7%
Test/Control (%) at Drug Concentration (SXFE RD-ES; 3.2E+01 μM): 5%
Test/Control (%) at Drug Concentration (SXFE RD-ES; 3.2E−01 μM): 29%
Test/Control (%) at Drug Concentration (SXFE RD-ES; 3.2E−02 μM): 84%
Test/Control (%) at Drug Concentration (SXFE RD-ES; 3.2E−03 μM): 93%
IC50 (OVCAR-3; OVCAR-3, 72 h, read-out: Abs. IC50): 0.426 µM
IC50 (OVCAR-3; OVCAR-3, 72 h, read-out: Rel. IC50): 0.362 µM
Test/Control (%) at Drug Concentration (OVCAR-3; OVCAR-3, 1.0E+00 μM): 27%
Test/Control (%) at Drug Concentration (OVCAR-3; OVCAR-3, 1.0E−01 μM): 95%
Test/Control (%) at Drug Concentration (OVCAR-3; OVCAR-3, 1.0E−02 μM): 97%
Test/Control (%) at Drug Concentration (OVCAR-3; OVCAR-3, 1.0E−03 μM): 89%
Test/Control (%) at Drug Concentration (OVCAR-3; OVCAR-3, 1.0E−04 μM): 97%
Test/Control (%) at Drug Concentration (OVCAR-3; OVCAR-3, 3.2E+00 μM): 26%
Test/Control (%) at Drug Concentration (OVCAR-3; OVCAR-3, 3.2E−01 μM): 69%
Test/Control (%) at Drug Concentration (OVCAR-3; OVCAR-3, 3.2E−02 μM): 90%
Test/Control (%) at Drug Concentration (OVCAR-3; OVCAR-3, 3.2E−03 μM): 93%
Test/Control (%) at Drug Concentration (OVCAR-3; OVCAR-3, 3.2E−04 μM): 103%
Abs. IC70 (OVCAR-3; OVCAR-3, 72 h): 0.749 µM
Rel. IC70 (OVCAR-3; OVCAR-3, 72 h): 0.447 µM
Bot. (%) (OVCAR-3; OVCAR-3, 72 h, curve fit): 26%
Top (%) (OVCAR-3; OVCAR-3, 72 h, curve fit): 95%
Compound Remaining (% of 0 min) (CYP2C19; 0 min): 100 % of 0 min
Compound Remaining (% of 0 min) (CYP2C19; 5 min): 92.6 % of 0 min
Compound Remaining (% of 0 min) (CYP2C19; 15 min): 82.1 % of 0 min
Compound Remaining (% of 0 min) (CYP2C19; 30 min): 76.3 % of 0 min
Compound Remaining (% of 0 min) (CYP2C19; 45 min): 70.5 % of 0 min
half-life at 5 μM (CYP2C19; human, recombinant CYP2C19 (Bactosomes), pH 7.4): 1.55 h
efflux ratio at 120 min, 10 μM (P-gp; Caco-2): 1.17
Papp A→B at 120 min, 10 μM (P-gp; Caco-2, Papp Mean): 25.4 ×10⁻⁶ cm/s
Papp B→A at 120 min, 10 μM (P-gp; Caco-2, Papp Mean): 29.8 ×10⁻⁶ cm/s
Papp A→B at 120 min, 10 μM (P-gp; Caco-2, Papp Rep 1): 22.4 ×10⁻⁶ cm/s
Papp B→A at 120 min, 10 μM (P-gp; Caco-2, Papp Rep 1): 30.2 ×10⁻⁶ cm/s
Papp A→B at 120 min, 10 μM (P-gp; Caco-2, Papp Rep 2): 28.5 ×10⁻⁶ cm/s
Papp B→A at 120 min, 10 μM (P-gp; Caco-2, Papp Rep 2): 29.4 ×10⁻⁶ cm/s
recovery at 120 min, 10 µM (P-gp; Caco-2, calculated mean % recovery values (range)): 55.7 to 75.1%
passive permeability (human P-gp transporter): high passive permeability
Compound Remaining (% of 0 min) (CYP2C8; CYP2C8, 5 μM, 0 min): 100 % of 0 min
Compound Remaining (% of 0 min) (CYP2C8; CYP2C8, 5 μM, 5 min): 90.6 % of 0 min
Compound Remaining (% of 0 min) (CYP2C8; CYP2C8, 5 μM, 15 min): 93.4 % of 0 min
Compound Remaining (% of 0 min) (CYP2C8; CYP2C8, 5 μM, 30 min): 102 % of 0 min
Compound Remaining (% of 0 min) (CYP2C8; CYP2C8, 5 μM, 45 min): 99.1 % of 0 min
% compound remaining (CYP2C8; CYP2C8, 5 μM, time not stated): > 87.5%
t1/2 (CYP2C8; CYP2C8, substrate 5 μM): >2.25 h
half-life at 5 μM (CYP2C8; human, recombinant CYP2C8 (Bactosomes), pH 7.4): > 2.25 h
